Results published in paper PMC10650486, “Fluoroquinolone-Based Organic Salts (GUMBOS) with Antibacterial Potential” (International Journal of Molecular Sciences, 2023).
“Also recorded” adds a separate entry of the source. Where a name gives a salt, the structure may show the parent alone. Read-outs that look alike come from different tables or passages of the source.

Tests used:
[1] = tested on: E. coli; set-up: method as in earlier work; settings: cited from earlier work
[2] = cited from earlier work
[3] = tested on: S. aureus; set-up: method as in earlier work; settings: cited from earlier work
[4] = Thermogravimetric analysis (TGA), thermal stability; type: physicochemical; settings: for Tonset / Tpeak / Tstart: 10 °C min^−1, N2 atmosphere; for Residue at 500 °C: mass residue remaining at 500 °C; for Tpeak: temperature at highest degradation rate; for Tstart: temperature where weight loss starts
Procedure: Thermogravimetric analysis (TGA) was executed using a Hi-Res modulated TGA 2950 thermogravimetric analyzer (TA Instruments, New Castle, DE, USA) and curves were obtained for all GUMBOS. Approximately 1-3 mg of GUMBOS was placed in a platinum pan and heated from 25 °C to 575 °C at a slow heating rate of 10 °C min^-1. Some characteristic parameters were extrapolated. For DSC and TGA, onset temperatures (Tonset) were determined as the temperature value matching the intersection point of the extrapolated initial baseline and the tangent or line through the linear section of the leading edge of the Tpeak point where the Tpeak was the temperature value at the highest degradation rate. For TGA, additional data were collected such as the temperature value where weight loss starts ([…]), and the percentage of mass residue remaining at 500 °C which allows evaluation of the short-term stability. All these parameters were extrapolated using the software NETZSCH Proteus® version 6.1081 (Netzsch-Gerätebau GmbH, Selb, Germany) for DSC analysis and Universal Analysis 2000 version 4.5A (TA Instruments-Waters LLC, New Castle, DE, USA) for TGA analysis.

[5] = Octanol/water partition coefficient, shake-flask method; type: physicochemical; settings: for logKO/W ± SD: octanol/water, shake-flask, mean ± standard deviation; for relative hydrophobicity from log KO/W: ranking within the [Cip]-based or [Mox]-based GUMBOS
Procedure: Following synthesis and structural characterization of FQ-based GUMBOS, octanol/water partition coefficient (Ko/w) values were obtained through a shake-flask method with minor modifications. Initially, water and 1-octanol were saturated by agitation for 24 h at room temperature. GUMBOS were solubilized in 5 mL of water-saturated octanol (Ci), to which an equivalent volume of octanol-saturated water was added. This solution subjected to 24 h of agitation and the absorbance of the upper layer was measured at a wavelength of 280 nm. Sample concentration in octanol (Co) was determined through a calibration curve, which was created using six solutions of different concentrations (4–30 μmol·L^−1) of GUMBOS in 1-octanol. Later, GUMBOS concentration in water (Cw) were obtained by the following equation Ci − C0 = Cw. Octanol/water partition coefficient (Ko/w) values were then calculated using Ko/w = Co/Cw. Data were representative of three replicates executed for each of the GUMBOS.

[6] = tested on: Staphylococcus aureus subsp. aureus Rosenbach ATCC 25923; test: Antibacterial susceptibility testing, broth microdilution, bacterial growth by absorbance at 630 nm; type: cell-based
Procedure: To evaluate the antimicrobial profile, a study was performed using the broth microdilution standard method with minor modifications using DMSO as solvent. Standard laboratory strains of Gram-positive Staphylococcus aureus subsp. aureus Rosenbach ATCC 25923 and Gram-negative Escherichia coli O157:H7 were studied. TSB was used as the culture medium for bacteria and samples with bacteria in media were considered positive controls.
Antibacterial activity of GUMBOS was evaluated by comparing it with negative controls, as well as with the antibacterial activity of the parent compounds, [Cip][HCl] and [Mox][HCl]. […] These values are determined through laboratory testing and can vary depending on the testing methodology and conditions, thus the range increase in this study to 25 mg·L^−1. Stock solutions were prepared using water for water-soluble compounds while non-water soluble compounds were reconstituted using a deionized water solution containing 5% DMSO [96]. Following that, the compounds were diluted using fresh tryptic soy broth (TSB) to achieve desired concentrations. Initially, agar media was used to grow additional bacteria to correlate absorbance readings to microbial counts. Then, a solution of 0.1 mL of S. aureus added to 10 mL of TSB was incubated at 37 °C for 24 h and repeated for three more days until enough bacteria was obtained. After centrifugation and washing steps with PBS (1×) solution until obtaining a homogenized pellet, the inoculum was then diluted to 0.06 absorbance at 630 nm or 0.5 McFarland [97]. After compounds were diluted in TSB, 100 μL of samples with 100 μL of S. aureus inoculum were then transferred to a 96-well flat bottom microtitre plate (TPP, Switzerland) which was sealed and left in incubation at 37 °C for 24 h. Absorbance was read at 630 nm with a BioTek universal microplate reader (Agilent Technologies, VT, USA) to determine the turbidity in the wells [97, 98]. Three wells were prepared per sample. To ensure the viability and growth of bacteria in the culture media, negative controls were conducted along with a positive culture using the media containing only the bacteria. [Cip][HCl] served as the reference antibacterial agent.

[7] = tested on: L929 mouse fibroblast cells; test: Cytotoxicity evaluation, resazurin reduction assay; type: cell-based; settings: 24 h exposure
Procedure: To assess the impact of GUMBOS on cell viability, the resazurin assay was employed using L929 mouse fibroblast cells as described previously by Page et al.. The L929 cells were cultured at 37 °C in a 5% CO2 atmosphere, utilizing DMEM supplemented with 10% FBS and 1% streptomycin/gentamycin. Once the cell culture reached 70–80% confluence, it was detached using a 0.25% (w/v) trypsin-ethylenediaminetetraacetic acid (EDTA) solution. The cells were then subjected to centrifugation with the Heraeus Multifuge X1R centrifuge (Thermo Fisher Scientific; Waltham, MA, USA) and resuspended in fresh medium. Viable cell counts were obtained through a Neubauer chamber (Improved Neubauer Bright-Line, Boeco; Hamburg, Germany).
For experiments, L929 cells were seeded at a density of 5 × 10^4 cells per well in 96-well microplates and supplemented with DMEM medium. Plates were placed in a humidified incubator at 37 °C with 5% CO2 for 24 h to allow cell attachment and growth. Subsequently, the culture medium was replaced with different concentrations of each sample being tested. After 24h incubation, the medium was replaced with fresh culture medium containing 10% resazurin. Cells were then incubated for 4 h in the dark at 37 °C with 5% CO2 to allow resazurin conversion. Fluorescence of resorufin was measured using a plate reader (Synergy HT plate reader-Biotek Instruments, Winooski, VT, USA) with excitation at 560 nm and emission at 590 nm. Negative control wells contained only culture medium, while positive control wells contained the cation precursor, the active pharmaceutical ingredient. All experiments were conducted in triplicate.

[8] = TGA, parent compound; cited from earlier work
[9] = tested on: E. coli O157:H7; set-up: method as in PMID 23447139; settings: same E. coli O157:H7 strain; cited from earlier work
[10] = 0.25 mg·L^−1, 24 h exposure, Figure 4a
[11] = 25 mg·L^−1, 24 h exposure, Figure 4b
[12] = 50 mg·L^−1 (highest concentration)

| SMILES | Tonset [4] [°C] | Residue at 500 °C [4] [%] | Tpeak [4] [°C] | Tstart [4] [°C] | logKO/W ± SD [5] | further results |
| --- | --- | --- | --- | --- | --- | --- |
| O=C(O)c1cn(C2CC2)c2cc(N3CCNCC3)c(F)cc2c1=O [[Cip], ciprofloxacin] | – | – | – | – | – | epidemiologic cutoff value (ECOFF) [1]: 0.06 mg·L^−1; logKO/W [2]: −0.13; epidemiologic cutoff value (ECOFF) [3]: 2 mg·L^−1 |
| CCCCC(CC)COC(=O)CC(C(=O)OCC(CC)CCCC)S(=O)(=O)O.O=C(O)c1cn(C2CC2)c2cc(N3CCNCC3)c(F)cc2c1=O (centres unmarked) [[Cip][Doc]] | 286.49 | 24.26 | 286.64 | 252.18 | 0.162 ± 0.015 | relative hydrophobicity from log KO/W [5]: most hydrophobic |
| CCCCC(CC)COC(=O)CC(C(=O)OCC(CC)CCCC)S(=O)(=O)O.COc1c(N2C[C@@H]3CCCN[C@@H]3C2)c(F)cc2c(=O)c(C(=O)O)cn(C3CC3)c12 [[Mox][Doc]] | 271.04 | 33.55 | 275.90 | 249.91 | – | antibacterial performance (bacterial growth) against S. aureus [6, 10]: activities closer to their precursor; antibacterial performance (bacterial growth) against S. aureus [6, 11]: significant differences from their corresponding precursors |
| c1ccc([B-](c2ccccc2)(c2ccccc2)c2ccccc2)cc1 [[Na][TPB], sodium tetraphenylborate, reference compound] | – | – | – | – | – | cytotoxicity to L929 cells (cell viability) ([7]; two highest concentrations (25 and 50 mg·L^−1)): cytotoxic |
| O=C(O)c1cn(C2CC2)c2cc(N3CC[NH2+]CC3)c(F)cc2c1=O.c1ccc([B-](c2ccccc2)(c2ccccc2)c2ccccc2)cc1 [[Cip][TPB]] | 117.85 | 36.93 | 122.95 | 98.94 | −0.464 ± 0.006 | cytotoxicity to L929 cells (cell viability) [7, 12]: some levels of cell toxicity |
| O=C(O)c1cn(C2CC2)c2cc(N3CCNCC3)c(F)cc2c1=O [[Cip][HCl], Ciprofloxacin hydrochloride monohydrate] | – | – | – | – | – | Tonset [8]: 300 °C; Tpeak [8]: 318 °C; Tstart [8]: 150 °C |
| COc1c(N2C[C@@H]3CCCN[C@@H]3C2)c(F)cc2c(=O)c(C(=O)O)cn(C3CC3)c12 [[Mox][HCl], moxifloxacin hydrochloride monohydrate] | – | – | – | – | – | Tonset [8]: 240 °C; Tpeak [8]: 260 °C; Tstart [8]: 220 °C |
| COc1c(N2C[C@@H]3CCCN[C@@H]3C2)c(F)cc2c(=O)c(C(=O)O)cn(C3CC3)c12.C[C@H](CCC(=O)O)[C@H]1CC[C@H]2[C@@H]3CC[C@@H]4C[C@H](O)CC[C@]4(C)[C@H]3C[C@H](O)[C@]12C [[Mox][Dxc]] | 275.22 | 15.60 | 284.97 | 208.92 | – | – |
| O=C(O)c1cn(C2CC2)c2cc(N3CCNCC3)c(F)cc2c1=O.O=S(=O)(NS(=O)(=O)C(F)(F)F)C(F)(F)F [[Cip][NTF2]] | 287.79 | 39.88 | 295.18 | 263.57 | 0.145 ± 0.075 | antibacterial performance (bacterial growth) against S. aureus [6, 10]: activities closer to their precursor |
| COc1c(N2C[C@@H]3CCCN[C@@H]3C2)c(F)cc2c(=O)c(C(=O)O)cn(C3CC3)c12.O=S(=O)(NS(=O)(=O)C(F)(F)C(F)(F)F)C(F)(F)C(F)(F)F [[Mox][BETI]] | 307.46 | 32.31 | 322.97 | 266.98 | – | – |
| COc1c(N2C[C@@H]3CCC[NH2+][C@@H]3C2)c(F)cc2c(=O)c(C(=O)O)cn(C3CC3)c12.c1ccc([B-](c2ccccc2)(c2ccccc2)c2ccccc2)cc1 [[Mox][TPB]] | 176.37 | 42.13 | 177.21 | 144.02 | – | antibacterial performance (bacterial growth) against S. aureus [6, 10]: activities closer to their precursor; antibacterial performance (bacterial growth) against S. aureus [6, 11]: significant differences from their corresponding precursors |
| CC1(C)SC2C(NC(=O)C(N)c3ccccc3)C(=O)N2C1C(=O)O.CC1(C)SC2C(NC(=O)C(N)c3ccccc3)C(=O)N2C1C(=O)O.N=C(NCCCCCCNC(=N)NC(=N)Nc1ccc(Cl)cc1)NC(=N)Nc1ccc(Cl)cc1 [chlorhexidine di-ampicillin] | – | – | – | – | – | concentrations at which growth was inhibited [9]: 0.06 to 0.12 mg/L |
| O=C(O)c1cn(C2CC2)c2cc(N3CCNCC3)c(F)cc2c1=O.O=S(=O)(NS(=O)(=O)C(F)(F)C(F)(F)F)C(F)(F)C(F)(F)F [[Cip][BETI]] | 284.61 | 35.43 | 294.04 | 266.25 | −0.314 ± 0.094 | – |
| COc1c(N2C[C@@H]3CCCN[C@@H]3C2)c(F)cc2c(=O)c(C(=O)O)cn(C3CC3)c12.O=S(=O)(NS(=O)(=O)C(F)(F)F)C(F)(F)F [[Mox][NTF2]] | 319.64 | 24.57 | 327.51 | 297.72 | – | cytotoxicity to L929 cells (cell viability) [7, 12]: slight toxicity |
| C[C@H](CCC(=O)O)[C@H]1CC[C@H]2[C@@H]3CC[C@@H]4C[C@H](O)CC[C@]4(C)[C@H]3C[C@H](O)[C@]12C.O=C(O)c1cn(C2CC2)c2cc(N3CCNCC3)c(F)cc2c1=O [[Cip][Dxc]] | 326.23 | 19.75 | 332.30 | 211.93 | −1.110 ± 0.018 | antibacterial performance (bacterial growth) against S. aureus [6, 10]: least antimicrobial agent of all tested samples; antibacterial performance (bacterial growth) against S. aureus [6, 11]: significant differences from their corresponding precursors; also recorded: least antimicrobial agent of all tested samples; cytotoxicity to L929 cells (cell viability) [7, 12]: some levels of cell toxicity; also recorded: slight toxicity; relative hydrophobicity from log KO/W [5]: most hydrophilic |
